# Assay results from ChEMBL document CHEMBL4270599, “Synthesis of a 3'-C-ethynyl-β-d-ribofuranose purine nucleoside library: Discovery of C7-deazapurine analogs as potent antiproliferative nucleosides” (Eur J Med Chem, 2018).
# Tests used:
# HOP-62 = assay: Cytotoxicity against human HOP62 cells after 48 hrs by SRB assay; assay type: functional; details: HOP-62, 48 h
# NCI-H460 = assay: Cytotoxicity against human NCI-H460 cells after 48 hrs by SRB assay; assay type: functional; details: NCI-H460, 48 h
# SF-539 [1] = assay: Cytotoxicity against human SF539 cells after 48 hrs by SRB assay; assay type: functional; details: SF-539, 48 h
# M14 = assay: Cytotoxicity against human M14 cells after 48 hrs by SRB assay; assay type: functional; details: M14, 48 h
# SK-MEL-28 = assay: Cytotoxicity against human SK-MEL-28 cells after 48 hrs by SRB assay; assay type: functional; details: SK-MEL-28, 48 h
# TK-10 [2] = assay: Cytotoxicity against human TK10 cells after 48 hrs by SRB assay; assay type: functional; details: TK-10, 48 h; for CC50: read-out: LC50 (the source's name)
# MCF7 = assay: Cytotoxicity against human MCF7 cells after 48 hrs by SRB assay; assay type: functional; details: MCF7, 48 h; for CC50: read-out: pLC50 (the source's name) (converted)
# IGROV-1 = assay: Growth inhibition of human IGROV1 cells assessed as cell growth at 10^-8 M incubated for 48 hrs by sulforhodamine B assay relative to control; assay type: functional; details: IGROV-1, 48 h, read-out: Activity
# OVCAR-8 = assay: Growth inhibition of human OVCAR8 cells assessed as cell growth at 10^-8 M incubated for 48 hrs by sulforhodamine B assay relative to control; assay type: functional; details: OVCAR-8, 48 h, read-out: Activity
# TK-10 [3] = assay: Growth inhibition of human TK10 cells assessed as cell growth at 10^-8 M incubated for 48 hrs by sulforhodamine B assay relative to control; assay type: functional; details: TK-10, 48 h, read-out: Activity
# DU-145 = assay: Growth inhibition of human DU145 cells assessed as cell growth at 10^-8 M incubated for 48 hrs by sulforhodamine B assay relative to control; assay type: functional; details: DU-145, 48 h, read-out: Activity
# RPMI-8226 = assay: Growth inhibition of human RPMI8226 cells assessed as cell growth at 10^-7 M incubated for 48 hrs by sulforhodamine B assay relative to control; assay type: functional; details: RPMI-8226, 48 h, read-out: Activity
# NCI-H322M = assay: Growth inhibition of human NCI-H322M cells assessed as cell growth at 10^-7 M incubated for 48 hrs by sulforhodamine B assay relative to control; assay type: functional; details: read-out: Activity
# HT-29 = assay: Growth inhibition of human HT-29 cells assessed as cell growth at 10^-7 M incubated for 48 hrs by sulforhodamine B assay relative to control; assay type: functional; details: HT-29, 48 h, read-out: Activity
# SF-539 [4] = assay: Growth inhibition of human SF539 cells assessed as cell growth at 10^-7 M incubated for 48 hrs by sulforhodamine B assay relative to control; assay type: functional; details: SF-539, 48 h, read-out: Activity
# SK-MEL-5 = assay: Growth inhibition of human SK-MEL-5 cells assessed as cell growth at 10^-7 M incubated for 48 hrs by sulforhodamine B assay relative to control; assay type: functional; details: SK-MEL-5, 48 h, read-out: Activity
# PC-3 = assay: Growth inhibition of human PC3 cells assessed as cell growth at 10^-7 M incubated for 48 hrs by sulforhodamine B assay relative to control; assay type: functional; details: PC-3, 48 h, read-out: Activity
# SF-268 = assay: Growth inhibition of human SF268 cells assessed as cell growth at 10^-6 M incubated for 48 hrs by sulforhodamine B assay relative to control; assay type: functional; details: SF-268, 48 h, read-out: Activity
# SF-539 [5] = assay: Growth inhibition of human SF539 cells assessed as cell growth at 10^-6 M incubated for 48 hrs by sulforhodamine B assay relative to control; assay type: functional; details: SF-539, 48 h, read-out: Activity
# SK-MEL-2 = assay: Growth inhibition of human SK-MEL-2 cells assessed as cell growth at 10^-6 M incubated for 48 hrs by sulforhodamine B assay relative to control; assay type: functional; details: SK-MEL-2, 48 h, read-out: Activity
# 786-0 = assay: Growth inhibition of human 786-0 cells assessed as cell growth at 10^-6 M incubated for 48 hrs by sulforhodamine B assay relative to control; assay type: functional; details: 786-0, 48 h, read-out: Activity
# RXF 393 = assay: Growth inhibition of human RXF393 cells assessed as cell growth at 10^-6 M incubated for 48 hrs by sulforhodamine B assay relative to control; assay type: functional; details: RXF 393, 48 h, read-out: Activity
# TK-10 [6] = assay: Growth inhibition of human TK10 cells assessed as cell growth at 10^-6 M incubated for 48 hrs by sulforhodamine B assay relative to control; assay type: functional; details: TK-10, 48 h, read-out: Activity
# Hs-578T = assay: Growth inhibition of human Hs 578T cells assessed as cell growth at 10^-6 M incubated for 48 hrs by sulforhodamine B assay relative to control; assay type: functional; details: read-out: Activity
# MOLT-4 = assay: Growth inhibition of human MOLT4 cells assessed as cell growth at 10^-5 M incubated for 48 hrs by sulforhodamine B assay relative to control; assay type: functional; details: MOLT-4, 48 h, read-out: Activity
# SR = assay: Growth inhibition of human SR cells assessed as cell growth at 10^-5 M incubated for 48 hrs by sulforhodamine B assay relative to control; assay type: functional; details: read-out: Activity
# SNB-19 = assay: Growth inhibition of human SNB19 cells assessed as cell growth at 10^-5 M incubated for 48 hrs by sulforhodamine B assay relative to control; assay type: functional; details: SNB-19, 48 h, read-out: Activity
# U-251 = assay: Growth inhibition of human U251 cells assessed as cell growth at 10^-5 M incubated for 48 hrs by sulforhodamine B assay relative to control; assay type: functional; details: U-251, 48 h, read-out: Activity
# UACC-257 = assay: Growth inhibition of human UACC257 cells assessed as cell growth at 10^-5 M incubated for 48 hrs by sulforhodamine B assay relative to control; assay type: functional; details: UACC-257, 48 h, read-out: Activity
# HCT-15 = assay: Growth inhibition of human HCT15 cells assessed as cell growth at 10^-4 M incubated for 48 hrs by sulforhodamine B assay relative to control; assay type: functional; details: HCT-15, 48 h, read-out: Activity
# TK-10 [7] = assay: Growth inhibition of human TK10 cells assessed as cell growth at 10^-4 M incubated for 48 hrs by sulforhodamine B assay relative to control; assay type: functional; details: TK-10, 48 h, read-out: Activity
# [8] = Antiproliferative activity against HELF cells after 4 days by Coulter counter method; assay type: cell-based; details: Homo sapiens, 96 h
# [9] = read-out: pLC50 (the source's name) (converted)
# [10] = read-out: LC50 (the source's name)
smiles,measurement,setting,value
C#C[C@@]1(O)[C@@H](CO)O[C@@H](n2ccc3c(N)ncnc32)[C@@H]1O,TGI,HOP-62; read-out: TGI,7.91 µM
same,GI50,HOP-62; read-out: pGI50 (converted),2040 nM
same,CC50,HOP-62; [9],> 100 µM
same,TGI,HOP-62; read-out: pTGI (converted),7.94 µM
same,TGI,NCI-H460; read-out: TGI,10.6 µM
same,GI50,NCI-H460; read-out: pGI50 (converted),468 nM
same,CC50,NCI-H460; [9],> 100 µM
same,TGI,NCI-H460; read-out: pTGI (converted),10.7 µM
same,CC50,SF-539 [1]; [10],11.6 µM
same,TGI,SF-539 [1]; read-out: TGI,4.44 µM
same,GI50,SF-539 [1]; read-out: pGI50 (converted),1910 nM
same,CC50,SF-539 [1]; [9],11.7 µM
same,TGI,SF-539 [1]; read-out: pTGI (converted),4.47 µM
same,TGI,M14; read-out: TGI,3 µM
same,GI50,M14; read-out: pGI50 (converted),1410 nM
same,CC50,M14; [9],6.31 µM
same,TGI,M14; read-out: pTGI (converted),3.02 µM
same,CC50,SK-MEL-28; [10],> 100 µM
same,TGI,SK-MEL-28; read-out: TGI,20.2 µM
same,GI50,SK-MEL-28; read-out: pGI50 (converted),3.98 µM
same,TGI,SK-MEL-28; read-out: pTGI (converted),20 µM
same,CC50,TK-10 [2],> 100 µM
same,TGI,TK-10 [2]; read-out: TGI,9.48 µM
same,GI50,TK-10 [2]; read-out: pGI50 (converted),2630 nM
same,TGI,TK-10 [2]; read-out: pTGI (converted),9.55 µM
same,TGI,MCF7; read-out: TGI,5.66 µM
same,GI50,MCF7; read-out: pGI50 (converted),240 nM
same,CC50,MCF7,85.1 µM
same,TGI,MCF7; read-out: pTGI (converted),5.62 µM
same,growth at 0.01 µM,IGROV-1,101%
same,growth at 0.01 µM,OVCAR-8,103%
same,growth at 0.01 µM,TK-10 [3],101%
same,growth at 0.01 µM,DU-145,103%
same,growth at 0.1 µM,RPMI-8226,98%
same,growth at 0.1 µM,NCI-H322M,94%
same,growth at 0.1 µM,HT-29,95%
same,growth at 0.1 µM,SF-539 [4],103%
same,growth at 0.1 µM,SK-MEL-5,101%
same,growth at 0.1 µM,PC-3,97%
same,growth at 1 µM,SF-268,76%
same,growth at 1 µM,SF-539 [5],88%
same,growth at 1 µM,SK-MEL-2,60%
same,growth at 1 µM,786-0,68%
same,growth at 1 µM,RXF 393,88%
same,growth at 1 µM,TK-10 [6],88%
same,growth at 1 µM,Hs-578T,114%
same,growth at 10 µM,MOLT-4,2%
same,growth at 10 µM,SR,15%
same,growth at 10 µM,SNB-19,-15%
same,growth at 10 µM,U-251,2%
same,growth at 10 µM,UACC-257,-16%
same,growth at 100 µM,HCT-15,-32%
same,growth at 100 µM,TK-10 [7],-5%
C#C[C@@]1(O)[C@@H](CO)O[C@@H](n2cc(I)c3c(N)ncnc32)[C@@H]1O,GI50,HOP-62; read-out: GI50,367 to 1520 nM
same,CC50,HOP-62; [10],> 100 µM
same,TGI,HOP-62; read-out: TGI,6.28 to 12 µM
same,GI50,NCI-H460; read-out: GI50,58.4 to 137 nM
same,CC50,NCI-H460; [10],75.4 to 100 µM
same,TGI,NCI-H460; read-out: TGI,1.67 to 2.18 µM
same,GI50,SF-539 [1]; read-out: GI50,304 to 471 nM
same,CC50,SF-539 [1]; [10],28.6 to 31.3 µM
same,TGI,SF-539 [1]; read-out: TGI,2.18 to 2.98 µM
same,GI50,M14; read-out: GI50,393 to 611 nM
same,CC50,M14; [10],55.5 to 100 µM
same,TGI,M14; read-out: TGI,8.47 to 10.7 µM
same,GI50,SK-MEL-28; read-out: GI50,1.56 to 2.46 µM
same,TGI,SK-MEL-28; read-out: TGI,9.27 to 14 µM
same,CC50,SK-MEL-28; [9],> 100 µM
same,GI50,TK-10 [2]; read-out: GI50,551 to 572 nM
same,CC50,TK-10 [2],> 100 µM
same,TGI,TK-10 [2]; read-out: TGI,5.51 µM
same,TGI,TK-10 [2]; read-out: pTGI (converted),5.5 µM
same,TGI,MCF7; read-out: TGI,> 100 µM
same,CC50,MCF7,> 100 µM
same,TGI,MCF7; read-out: pTGI (converted),> 100 µM
same,growth at 0.01 µM,IGROV-1,39 to 60%
same,growth at 0.01 µM,OVCAR-8,75 to 89%
same,growth at 0.01 µM,TK-10 [3],85 to 94%
same,growth at 0.01 µM,DU-145,91 to 94%
same,growth at 0.1 µM,RPMI-8226,71 to 90%
same,growth at 0.1 µM,NCI-H322M,69 to 82%
same,growth at 0.1 µM,HT-29,14 to 34%
same,growth at 0.1 µM,SF-539 [4],75 to 82%
same,growth at 0.1 µM,SK-MEL-5,62 to 65%
same,growth at 0.1 µM,PC-3,43 to 48%
same,growth at 1 µM,SF-268,49 to 55%
same,growth at 1 µM,SF-539 [5],23 to 35%
same,growth at 1 µM,SK-MEL-2,11 to 24%
same,growth at 1 µM,786-0,13 to 23%
same,growth at 1 µM,RXF 393,26 to 34%
same,growth at 1 µM,TK-10 [6],34 to 39%
same,growth at 1 µM,Hs-578T,38 to 53%
same,growth at 10 µM,SNB-19,2 to 3%
same,growth at 10 µM,U-251,4%
same,growth at 10 µM,UACC-257,6 to 7%
same,growth at 100 µM,HCT-15,1%
same,IC50,[8],32 nM
